Assay [1] has as its system HTB-9 cells. The experiment in a line: Pre-treatment of HTB-9 bladder epithelial cells before CY17 infection (confocal imaging, ELISA). The assay is classed as cell-based, human. Conditions: for IL-1β secretion (ELISA, culture supernatants) / SP secretion (ELISA, culture supernatants): pre-treated before CY17 infection. How it is done:
(§1) Cells were grown on 8-well chamber slides (6×10^4 cells/well, Thermo Fischer Scientific) or in 6-well plates (6×10^5 cells/well) for 16 hours in media supplemented with 10% FBS. Media were removed, and cells were washed with PBS before adding medium without FBS. Cells were infected with bacteria diluted to appropriate concentration in PBS and incubated for one or four hours at 37° C. with 5% CO2.
(§2) The two cell types were first infected with increasing concentrations of the acute cystitis strain E. coli CY-17 (10^2-10^4 cfu/ml) for 1 to 4 hours. NK1R and SP expression was used as a read out of the cellular response. […] A concentration of 10^4 cfu/ml of CY-17 and four hours of infection was chosen for further studies. Under these conditions, there was little cytotoxicity. To further characterize the neuropeptide response to bladder infection, the in vitro analysis was extended to include GALR2, OrxR2 and TAS2R43. Confocal microscopy was used in this instance. Infected cells were fixed (3.7% formaldehyde, 15 min), permeabilized (0.25% triton X-100, 5% FBS, 10 min), blocked (5% FBS, 1 h at RT), incubated overnight with primary antibodies in 5% FBS: Anti-NK1R (1:100, SC-15323, Santa Cruz), anti-SP, (1:200, ORB11399, Biorbyt), anti-orexin receptor 2, (1:200, AB10470, Abcam), anti-TAS2R43, (1:200, AB65513, Abcam), and anti-GALR2 antibodies (1:100, AB136264, Abcam). Appropriate fluorescently labeled secondary antibodies were used (Alexa Fluor® 488 goat anti-rabbit IgG, A-11034; Life Technologies, (1 hour at Room Temperature). After nuclear staining (DRAQ5, 1:1000, Abcam) slides were mounted (Fluoromount, Sigma-Aldrich), imaged by laser scanning confocal microscopy (MSM510 META confocal microscope, Carl Zeiss) and quantified by ImageJ software 1.46r (NIH).
(§3) HTB-9 cells and differentiated SH-SY5Y cells were pre-treated with SR140333, or IL-1RA Anakinra (500 ng/ml) for 30 minutes before infection with CY17 (10^4 cfu/ml, four hours), or treatment with exogenous recombinant SP (R&D System) or IL-1β (Abnova) (20 ng/ml, four hours). After infection, cells were infected with CY17 and the NK1R, SP and IL-1β response was quantified by confocal imaging. IL-1β- and SP secretion was quantified by ELISA, in culture supernatants. In nerve- and bladder epithelial cells, SR140333 inhibited the SP/NK1R response to infection, consistent with an autocrine activation loop involving SP/NK1R as shown by confocal imaging (FIG. 10a). […] SP activated IL-1β expression and secretion in bladder epithelial cells but had no effect on IL-1β on nerve cells. (*=P<0.05, **=P<0.01, ***=P<0.001, Two-tailed t-test for confocal imaging data and Mann-Whitney U-test for ELISAs.
Furthermore, to examine if the effects of NK1R inhibition can be generalized, we used two additional NK1R antagonists (CP99994 and L703.303). HTB-9 cells and differentiated SH-SY5Y cells were pre-treated with SR140333, CP99994, L-703.606 or IL-1RA Anakinra (500 ng/ml) for 30 minutes before infection with CY17 (10^4 cfu/ml, four hours), or treatment with exogenous recombinant SP (R&D System) or IL-1β (Abnova) (20 ng/ml, four hours).
Background: An ELISA detects its analyte on a solid surface through an enzyme-linked reagent.

Assay [2] has as its system Asc^−/− mice. Conditions: cited from earlier work.
For assay [3], the system named is Asc^−/− mice. The experiment in a line: Anakinra treatment of infected Asc^−/− mice (bladder NK1R/SP staining, disease severity). It counts as in vivo. The protocol: FIG. 8a The mice were pre-treated with interleukin 1 receptor antagonist (IL1-RA) Anakinra, 30 min before infection and daily after infection with E. coli CFT073 (1 mg in 100 μl of PBS i.p. per mouse). FIG. 8b Reduction in NK1R in Anakinra® treated compared to untreated control mice. Bladder tissue sections from infected Asc^−/− mice treated with Anakinra® were stained for NK1R. […] FIG. 8c Reduction in SP staining in Anakinra® treated Asc^−/− mice compared to untreated mice. […] Sections were obtained from 3 mice per group; one of two experiments is shown. *=p<0.05, **=p<0.01, two tailed t-test). FIG. 8d The disease severity score was reduced by the Anakinra (n=3-4, ***P<0.001, compared to untreated Asc^−/− mice, Fisher's exact test, Reference for (d):.
To confirm the importance of Il1b for the neuropeptide response, susceptible Asc^−/− mice were treated with the IL-1 receptor (IL-1R) antagonist Anakinra® (FIG. 8a). This therapeutic approach was recently shown to be effective against acute cystitis, as Anakinra® attenuated the hyper-inflammatory response to infection and prevented bladder pathology in susceptible mice.
These findings were confirmed in vitro by pretreating nerve cells and bladder epithelial cells with Anakinra (500 ng/ml) followed by CY-17 infection (10^4 CFU/ml, 4 hours).

Assay [4] relates to differentiated SH-SY5Y cells. Put plainly: Pre-treatment of differentiated SH-SY5Y nerve cells before CY17 infection (confocal imaging, ELISA). It counts as cell-based, human. The protocol: as §1, §2, §3
Furthermore, to examine if the effects of NK1R inhibition can be generalized, we used two additional NK1R antagonists (CP99994 and L703.303). […]

In assay [5] the test system is differentiated SH-SY5Y cells. The experiment in a line: Treatment of differentiated SH-SY5Y nerve cells with exogenous recombinant SP or IL-1β. The assay is classed as cell-based, human. Particulars: four hours. How it is done:
as §3

Assay [6] deals with HTB-9 cells. Put plainly: Treatment of HTB-9 bladder epithelial cells with exogenous recombinant SP or IL-1β. The assay is classed as cell-based, human. Particulars: four hours. The protocol:
as §3

Setting [7] is: susceptible mice, recently shown.
[8] abbreviates: infected Asc^−/− mice, 1 mg in 100 μl PBS i.p. 30 min before and daily after infection, vs infected controls without therapy.
The mark [9] stands for this setting: exogenous recombinant SP 20 ng/ml.

Where no end group is shown, it is not given here.

Regarding `COc1ccccc1CN[C@H]1CCCN[C@H]1c1ccccc1` [CP99994, (2S,3S)-N-[(2-Methoxyphenyl)methyl]-2-phenyl-3-piperidinamine], in the assay with HTB-9 cells [1], the “IL-1β secretion (ELISA, culture supernatants)” value (“IL-1β secretion” for short) is on record as “decreased” and the “SP secretion (ELISA, culture supernatants)” value is listed as “decreased”.
With `Ic1ccccc1CN[C@@H]1C2CCN(CC2)[C@@H]1C(c1ccccc1)c1ccccc1` [L703.606, (2R,3R)-2-benzhydryl-N-[(2-iodanylphenyl)methyl]-1-azabicyclo[2.2.2]octan-3-amine], in the assay with HTB-9 cells [1], the “IL-1β secretion” value is reported as “decreased” and the “SP secretion (ELISA, culture supernatants)” value is “decreased”.
For “Anakinra: interleukin 1 receptor antagonist (IL1-RA) Anakinra”, the disease severity score result in the assay on Asc^−/− mice [2] (compared to untreated Asc^−/− mice, n=3-4, P<0.001) was “reduced”. In the assay with Asc^−/− mice [2] (setting [7]), the bladder pathology result is “prevented” and the “hyper-inflammatory response to infection” value is “attenuated”. In the assay on Asc^−/− mice [3] (setting [8]), the “NK1R response (mucosal NK1R staining, bladder sections)” value is on record as “marked reduction” and the “SP response (mucosal SP staining, bladder sections)” value was “marked reduction”. Moreover, in the assay with Asc^−/− mice [3] (uninfected mice), the “baseline NK1R staining” value is “reduced” and the “baseline SP staining” value is “reduced”. Besides, the “IL-1β secretion” value in the assay on HTB-9 cells [1] is “inhibited”. The “NK1R expression / staining” value with HTB-9 cells [1] (pretreatment prior to CY17 infection (10^4 CFU/ml, 4 hours)) is “marked reduction”. The NK1R staining result in assay [4] (Anakinra 500 ng/ml pretreatment, CY-17 infection (10^4 CFU/ml, 4 hours)) was “marked reduction”. Also, the “SP/NK1R response to infection (confocal imaging)” value in assay [4] (pre-treated 30 minutes before CY17 (10^4 cfu/ml, four hours)) is listed as “no effect”.
Take “IL-1β: exogenous recombinant IL-1β (Abnova)”: the SP/NK1R expression entry (in assay [5] (exogenous IL-1β 20 ng/ml); with HTB-9 cells [6] (exogenous IL-1β 20 ng/ml)) was “increased” throughout.
For “SP: exogenous recombinant SP (R&D System), ligand of NK1R (RPKPQQFFGLM-NH2; ends and bridges not checked; UniProt P20366 58-68, looked up)”, the IL-1β result in assay [5] (setting [9]) is recorded as “no effect”. Moreover, the “IL-1β expression and secretion” value in the assay with HTB-9 cells [6] (setting [9]) is listed as “activated”.

Source of the values: patent US20250082625A1, “NOVEL THERAPY” (priority 2016, published 2025).
